From PubChem BioAssay (NCI)
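A five-concentration, 48-hour dose response in 96-well plates underlies each endpoint, interpolated linearly between surrounding concentrations. TGI denotes the concentration required for complete inhibition of growth.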

Columns and labels:
Assay in all cases: inhibition of tumour cell growth, NCI panel, 48 h
NCI/ADR-RES ovarian = tested on: NCI/ADR-RES ovarian
OVCAR-4 ovarian = tested on: OVCAR-4 ovarian
MDA-MB-231 breast = tested on: MDA-MB-231 breast
HCT-116 colon = tested on: HCT-116 colon
IGROV1 ovarian = tested on: IGROV1 ovarian
UO-31 renal = tested on: UO-31 renal
A549 NSCLC = tested on: A549 NSCLC
SF-295 CNS = tested on: SF-295 CNS
NCI-H23 lung = tested on: NCI-H23 lung
HCC-2998 colon = tested on: HCC-2998 colon
UACC-62 melanoma = tested on: UACC-62 melanoma
HCT-15 colon = tested on: HCT-15 colon
CAKI-1 renal = tested on: CAKI-1 renal
SK-MEL-5 melanoma = tested on: SK-MEL-5 melanoma
SK-OV-3 ovarian = tested on: SK-OV-3 ovarian
NCI-H460 lung = tested on: NCI-H460 lung
SW-620 colon = tested on: SW-620 colon
OVCAR-8 ovarian = tested on: OVCAR-8 ovarian
SR leukemia = tested on: SR leukemia
SK-MEL-2 melanoma = tested on: SK-MEL-2 melanoma
MALME-3M melanoma = tested on: MALME-3M melanoma
MOLT-4 leukemia = tested on: MOLT-4 leukemia
DU-145 prostate = tested on: DU-145 prostate
TK-10 renal = tested on: TK-10 renal
K-562 leukemia = tested on: K-562 leukemia
RXF 393 renal = tested on: RXF 393 renal
COLO 205 colon = tested on: COLO 205 colon
SF-539 CNS = tested on: SF-539 CNS
UACC-257 melanoma = tested on: UACC-257 melanoma
LOX IMVI melanoma = tested on: LOX IMVI melanoma
T-47D breast = tested on: T-47D breast
U251 CNS = tested on: U251 CNS
MDA-MB-435 = tested on: MDA-MB-435
BT-549 breast = tested on: BT-549 breast
HS 578T breast = tested on: HS 578T breast
MCF7 breast = tested on: MCF7 breast
786-0 renal = tested on: 786-0 renal
ACHN renal = tested on: ACHN renal
HOP-92 NSCLC = tested on: HOP-92 NSCLC
HOP-62 NSCLC = tested on: HOP-62 NSCLC
HT29 colon = tested on: HT29 colon
PC-3 prostate = tested on: PC-3 prostate
SF-268 CNS = tested on: SF-268 CNS
NCI-H226 lung = tested on: NCI-H226 lung
RPMI-8226 leukemia = tested on: RPMI-8226 leukemia
KM12 colon = tested on: KM12 colon
SN12C renal = tested on: SN12C renal
SNB-19 CNS = tested on: SNB-19 CNS
MDA-N = tested on: MDA-N
M14 melanoma = tested on: M14 melanoma
SNB-75 CNS = tested on: SNB-75 CNS
HL-60(TB) leukemia = tested on: HL-60(TB) leukemia
OVCAR-3 ovarian = tested on: OVCAR-3 ovarian
EKVX NSCLC = tested on: EKVX NSCLC
A498 renal = tested on: A498 renal
SK-MEL-28 melanoma = tested on: SK-MEL-28 melanoma
CCRF-CEM leukemia = tested on: CCRF-CEM leukemia
OVCAR-5 ovarian = tested on: OVCAR-5 ovarian
NCI-H522 lung = tested on: NCI-H522 lung

Measured: TGI

Nc1nc(N)c2c(Cl)c(CNc3ccc(C(=O)NC(CC(=O)O)C(=O)O)cc3)ccc2n1 (configuration not stated)
31.9 µM: SF-539 CNS
> 93.3 µM: SK-OV-3 ovarian
> 34.2 µM: MCF7 breast
0.415 µM: IGROV1 ovarian
not listed: EKVX NSCLC | A498 renal | SK-MEL-28 melanoma | CCRF-CEM leukemia | OVCAR-5 ovarian | NCI-H522 lung
> 100 µM: all other assays above

COC(=O)C#Cc1cccc(OC)c1OC
68.3 µM: CAKI-1 renal
55.1 µM: K-562 leukemia
54.4 µM: EKVX NSCLC
65.7 µM: COLO 205 colon
36.2 µM: OVCAR-4 ovarian
44.8 µM: SR leukemia
79.2 µM: HT29 colon
37.9 µM: UO-31 renal
46.4 µM: SF-539 CNS
66.1 µM: HOP-92 NSCLC
55.6 µM: MCF7 breast
35.4 µM: MOLT-4 leukemia
67.9 µM: CCRF-CEM leukemia
99 µM: NCI/ADR-RES ovarian
48.2 µM: HCC-2998 colon
51.3 µM: OVCAR-5 ovarian
not listed: IGROV1 ovarian | SK-MEL-2 melanoma | RXF 393 renal | SF-268 CNS | SNB-75 CNS | NCI-H522 lung
> 100 µM: all other assays above

COC(=O)CCc1ccc2c(c1)[C@H](C(=O)OC)[C@@H](c1ccc(O)cc1)O2
47.1 µM: HCT-116 colon
65.9 µM: SF-539 CNS
67.1 µM: NCI-H226 lung
not listed: RXF 393 renal | 786-0 renal | SNB-75 CNS
> 100 µM: all other assays above
